Measurements from patent US20220252611A1 (priority 2019, published 2022).

Legend:
[1] = tested on: alpha 2 adrenergic receptor; experiment: Simultaneous MS binding assay, alpha 2 adrenergic receptor in rat cortex; settings: multiplexed with prazosine, FIG. 3A
Method: (§1) FIG. 3A is a graph showing a simultaneous binding experiment with alpha1 and alpha 2 beta-adrenoceptors. The target molecules are comprised in rat cortex, which contains both alpha 1 and alpha 2 beta adrenoceptors. The test compound is WB4101 and the ligands are prazosine and RX821002.
(§2) This example used target molecule comprising both alpha 1 and alpha 2 beta adeno receptors incubated with WB4101 (test compound) in the presence prazosine (ligand, or “marker” for alpha 1) and RX821002 (ligand, or “marker” for alpha 2) as shown in FIG. 3A. In FIG. 3B, yohimbine (test compound) was tested in the presence of in the presence prazosine (marker for alpha 1) and RX821002 (marker for alpha 2). The signals are indicated ns for non-specific.
(§3) Rat cortexes from Wistar male rats were harvested and transferred to 50 mM Tris-HCl (pH, 7.4) and homogenized by a polyton. […] The pellet was finally resuspended in a smaller volume of lyses buffer and the final protein concentration was determined according to the Bradford method using bovine serum albumin as a standard. […]
(§4) The filters were dried for one hour at 50° C. and cooled to room temperature before elution of ligands using a acetonitrile (contained 100 μM of antipyrine as an internal standard) via a vacuum manifold. Relative quantification of ligand in each sample was performed by UHPLC-MS-MS, the ratio area of ligand and internal standard was used. […]

[2] = tested on: alpha 1 adrenergic receptor; experiment: Simultaneous MS binding assay, alpha 1 adrenergic receptor in rat cortex; settings: multiplexed with RX821002, FIG. 3A
Method: as §1, §2, §3, §4

[3] = target: sodium channel (Na+) site 2 receptor; experiment: MS binding assay of sodium channel, batrachotoxin as ligand, UHPLC-MS/MS; settings: rat cortex membrane 200 μg/well, 60 minutes at 37° C.; second value column of Table 4 (SNR 8), taken as MS binding
[4] = target: sodium channels; experiment: Radioligand binding assay of sodium (Na) channel; settings: rat cortex sodium channels; first value column of Table 4 (SNR 6), taken as radioligand binding

Question: For COC1(C2=NCCN2)COc2ccccc2O1 (stereo not shown) [RX821002], which “specific binding to alpha 2 adrenergic receptor” value [1] is on record?
Answer: The value was “shown specifically to bind”.

Question: COc1cc2nc(N3CCN(C(=O)c4ccco4)CC3)nc(N)c2cc1OC [prazosine] was tested. Which “specific binding to alpha 1 adrenergic receptor” value [2] did it give?
Answer: Its value is “shown specifically to bind”.

Question: How did the EC50 [3] turn out when Batrachotoxin was run?
Answer: The EC50 was 143 nM.

Question: What about the Kd [4] of the same compound?
Answer: Its Kd is 91 nM.
